In US9862684B2, “Modulation of K2P channels” (The Regents of the University of California, priority 2013, dated 2018):

Biological target: T1, K2P10.1 (TREK-2) (Mus musculus, UniProt Q8BUW1)
T1 construct: expressed in transfected cells; host or cells: Xenopus oocytes
T1 sequence (Q8BUW1 1-535): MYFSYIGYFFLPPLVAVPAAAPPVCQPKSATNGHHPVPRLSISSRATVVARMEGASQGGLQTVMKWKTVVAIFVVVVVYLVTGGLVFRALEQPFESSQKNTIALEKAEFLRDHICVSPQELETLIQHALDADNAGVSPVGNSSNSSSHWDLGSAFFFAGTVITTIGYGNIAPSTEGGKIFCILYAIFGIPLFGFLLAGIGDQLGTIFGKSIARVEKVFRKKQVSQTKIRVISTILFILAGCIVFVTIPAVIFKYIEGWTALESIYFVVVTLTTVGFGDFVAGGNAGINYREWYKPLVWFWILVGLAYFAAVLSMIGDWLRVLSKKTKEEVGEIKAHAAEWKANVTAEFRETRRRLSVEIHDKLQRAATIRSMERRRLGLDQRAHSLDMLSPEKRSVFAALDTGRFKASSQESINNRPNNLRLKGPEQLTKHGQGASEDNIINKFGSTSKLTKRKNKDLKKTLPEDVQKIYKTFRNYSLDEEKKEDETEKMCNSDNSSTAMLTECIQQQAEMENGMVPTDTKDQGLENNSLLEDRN
Assay: Two-electrode voltage clamp, Xenopus oocytes expressing K2P10.1 (TREK-2)
Type: cell-based, Murine
Method: FIG. 7 ML67-33 is a selective activator of heat- and mechanosensitive K2P channels. a-f, Exemplar I-V curves showing the effect of ML67-33 on a, K2P10.1 (TREK-2), b, K2P4.1 (TRAAK), c, K2P3.1 (TASK-1), d, K2P9.1 (TASK-3), e, K2P5.1 (TASK-2), and f, K2P18.1 (TRESK) measured in Xenopus oocytes in 2 mM [K^+]o pH 7.4. Currents were elicited by a voltage ramp from −150 to 50 mV, from a holding potential of −80 mV. g, Quantification of the effect of ML67-33 on the indicated channels. Data (mean±s.e., n≧6, N≧2) was normalized to basal channel activity and fitted to the Hill equation. […] Error bars indicate s.e., n≧6, N≧2.
Murine K2P channels were cloned into pGEMHE/pMO {Bagriantsev, 2011}, IRES-GFP (Invitrogen), or pYES2-MET25 (high copy 2μ, URA3) {Minor, 1999} for expression in oocytes, HEK-293T cells, and yeast, respectively, using standard molecular biology procedures, and verified by DNA sequencing.
Two-electrode voltage clamp recordings were performed from defolliculated stage V-VI Xenopus oocytes 24-48 hours after injection with 0.015-6.0 ng cRNA, using microelectrodes (0.3-3.0 MΩ) filled with 3M KCl. Data was acquired using the GeneClamp 500B (MDS Analytical Technologies) amplifier controlled by the pClamp software (Molecular Devices), and digitized at 1 kHz using Digidata 1332A (MDS Analytical Technologies). Recording solutions (mM): 2K (96 NaCl, 2 KCl, 1.8 CaCl2, 2 MgCl2), 90K (90 KCl, 8 NaCl, 1.8 CaCl2, 2 MgCl2), were buffered 5 mM HEPES pH 7.4. For K2P recordings, currents we elicited by a 1 second long ramp from −150 to +50 mV from a holding potential of −80 mV (2K), or −100 to +50 mV from a holding potential of 0 mV (90K). For KCNQ2 recordings, currents were elicited by a step protocol from −120 to 60 mV, in 20 mV increments, from a holding potential of −80 mV. Patch-clamp recordings from HEK-293T cells were performed using microelectrodes (2-3 MΩ) filled with 1M KCl. Data was acquired using the Axopatch 200B amplifier controlled by pClamp software, and digitized at 1 kHz using Digidata 1332A. Recording solutions (mM): intracellular (145 KCl, 5 EGTA, 3 MgCl2,) extracellular (150 NaCl, 5 KCl, 3 MgCl2, 1 CaCl2) were buffered with 5 mM HEPES pH 7.2 and 7.4, respectively. Currents were elicited by a 1 second long ramp from −150 to +50 mV from a holding potential of −80 mV. Data were fitted with a modified Hill's equation: I=Imin+(Imax−Imin)/(1+10^((Log EC50−Log [C])*H)), where Imax and Imin are maximal and minimal current values, respectively, EC50 is a half-maximal effective concentration of the compound, and H is the Hill coefficient.
There are six K2P subgroups {Noel, 2011} (FIG. 11). […]

SMILES: CC1(C)c2cc(Cl)ccc2N(CCc2nnn[nH]2)c2ccc(Cl)cc21 [ML67-33, 2,7-dichloro-9,9-dimethyl-10-[2-(1H-tetrazol-5-yl)ethyl]acridine]
- Emax (fold) (FIG. 7 legend: at 100 μM): 11.4±1.8 fold
- EC50 (Xenopus oocytes, 2 mM [K+]o pH 7.4): 30.2 ± 1.4 µM
